Measured values published in patent EP3150201B1, “COMPOSITE PREPARATION COMPRISING 5- -REDUCTASE INHIBITOR-CONTAINING FILM COATING LAYER, AND METHOD FOR PRODUCING THE COMPOSITE PREPARATION” (Hanmi Pharm. Co., Ltd., priority 2014, dated 2016).

Columns and labels:
[1] = Crystalline form analysis of dried film by X-ray diffractometry (Test Example 4); format: physicochemical; conditions: raw material powder or dried film from the film coating solution
Procedure: Each film coating solution prepared in Examples 2 and 7 and Comparative Example 2 was sprayed on a Petri dish and dried to form a film. These films were collected, and crystalline forms thereof were analyzed using an X-ray diffractometer (D8 Advance, Bruker) with Cu X-ray radiation at a voltage of 40 kV, at a current of 100 mA, and with a scan rate of 3 deg/min. The results of the X-ray diffractometry of finasteride powder as a raw material, and the dried films prepared using the film coating solutions of Examples 2 and 7 and Comparative Example 2 are shown in FIG. 5.

[2] = Solubility test of finasteride and coating materials (visual observation); format: physicochemical; conditions: organic solvent-water mixture solvents of Comparative Example 1, 2, 5, 6, and 7; visually observed
Procedure: Finasteride, Kollicoat® IR, povidone, and polyvinyl alcohol were added to the organic solvent-water mixture solvents in a variety of ratios presented in Tables 1 to 4, and it was visually observed whether finasteride, Kollicoat® IR, povidone, and polyvinyl alcohol were soluble or not in each of the organic solvent-water mixture solvents.

CC(C)(C)NC(=O)[C@H]1CC[C@H]2[C@@H]3CC[C@H]4NC(=O)C=C[C@]4(C)[C@H]3CC[C@]12C [Finasteride, finasteride]
crystalline form [1]: crystalline
soluble or not [2]: insoluble
